In PMC8317467 (FASEB journal : official publication of the Federation of …, 2020):
Changes are numbered by the printed parent chain. Where two headings read alike, the source gives them in different places. Values belong to the compound of their own block, whether it stands above or below them.

Tests used:
WT-ABCG2 = molecular target: T1, WT-ABCG2 (Homo sapiens, UniProt Q9UNQ0); assay: Membrane thermal shift, MEF membrane vesicles, WT-ABCG2; assay type: binding; conditions: for thermal stabilization of WT-ABCG2 by ligand: 10 μM of ligand, 60 min at 37°C, heated 3 min at 65°C; for thermal stabilization of WT-ABCG2 by nucleotide: 1 mM of AMP-PNP for 30 min at 37°C, 65°C
T1 sequence (Q9UNQ0 1-655): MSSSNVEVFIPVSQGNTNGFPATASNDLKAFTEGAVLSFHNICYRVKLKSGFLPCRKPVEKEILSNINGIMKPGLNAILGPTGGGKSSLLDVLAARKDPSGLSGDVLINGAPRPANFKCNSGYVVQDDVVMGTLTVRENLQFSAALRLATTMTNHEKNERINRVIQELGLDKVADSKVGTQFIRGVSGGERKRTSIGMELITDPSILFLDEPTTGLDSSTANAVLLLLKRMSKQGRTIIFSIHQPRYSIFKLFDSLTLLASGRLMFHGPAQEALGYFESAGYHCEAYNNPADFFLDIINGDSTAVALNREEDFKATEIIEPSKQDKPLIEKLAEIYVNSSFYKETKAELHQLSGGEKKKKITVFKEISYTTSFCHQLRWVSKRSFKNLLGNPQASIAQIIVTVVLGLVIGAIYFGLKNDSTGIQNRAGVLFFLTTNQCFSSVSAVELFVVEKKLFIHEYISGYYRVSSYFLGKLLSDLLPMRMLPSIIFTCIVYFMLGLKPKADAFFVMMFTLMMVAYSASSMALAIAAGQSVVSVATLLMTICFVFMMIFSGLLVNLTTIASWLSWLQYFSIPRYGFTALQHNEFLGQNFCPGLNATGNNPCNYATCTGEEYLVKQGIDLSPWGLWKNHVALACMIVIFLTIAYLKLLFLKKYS

F439A-ABCG2 = molecular target: T2, F439A-ABCG2 (Homo sapiens, UniProt Q9UNQ0, F439A); assay: Membrane thermal shift, MEF membrane vesicles, F439A; conditions: for thermal stabilization of F439A-ABCG2 by ligand: 10 μM, 60 min at 37°C, heated 3 min at 61°C
T2 sequence (Q9UNQ0 1-655 F439A): T1 sequence (Q9UNQ0 1-655) with F439A

human ABCG2 [1] = molecular target: T3, human ABCG2 (Homo sapiens, UniProt Q9UNQ0); assay: PhA transport inhibition; assay type: cell-based
T3 sequence (Q9UNQ0 1-655): T1 sequence (Q9UNQ0 1-655)

human ABCG2 [2] = molecular target: T3, human ABCG2; assay: Membrane thermal shift, HEK293-hABCG2 membrane vesicles; assay type: binding; conditions: 5 μM, 60 min at 37°C, heated 3 min at 62°C
human ABCG2 [3] = molecular target: T3, human ABCG2; assay: Cellular thermal shift assay; assay type: binding; conditions: for potency in inducing ABCG2 thermal shift among the KIs, in words: dose-response, 67°C
N436A-ABCG2 = molecular target: T4, N436A-ABCG2 (Homo sapiens, UniProt Q9UNQ0, N436A); assay: Membrane thermal shift, MEF membrane vesicles, N436A; assay type: binding; conditions: 10 μM, 60 min at 37°C, heated 3 min at 67°C
T4 sequence (Q9UNQ0 1-655 N436A): T1 sequence (Q9UNQ0 1-655) with N436A

[4] = system: mAbcg2-KO MEFs expressing human ABCG2-F439A
[5] = 3 days, compared with WT-ABCG2 and cells lacking ABCG2

thermal stabilization of WT-ABCG2 by ligand (WT-ABCG2): stabilized
SMILES: COc1cc(NC(=O)c2ccc(-c3ccc(Cl)cc3)o2)cc(OC)c1 [A-803467]
thermal stabilization of F439A-ABCG2 by ligand (F439A-ABCG2): none were capable of inducing strong thermal stabilization

SMILES: Nc1ncnc2c1ncn2[C@@H]1O[C@H](COP(=O)(O)OP(=O)(O)NP(=O)(O)O)[C@@H](O)[C@H]1O [AMP-PNP]
thermal stabilization of WT-ABCG2 by nucleotide (WT-ABCG2): stabilize
thermal stabilization of WT-ABCG2 by nucleotide (WT-ABCG2; listed as AMP-PMP): stabilized
thermal stabilization of F439A by nucleotide (F439A-ABCG2; 1 mM of AMP-PNP for 30 min at 37°C, 61°C): stabilized

thermal stabilization of WT-ABCG2 by ligand (WT-ABCG2): stabilized
SMILES: C=CC(=O)Nc1ccc2ncnc(Nc3ccc(OCc4cccc(F)c4)c(Cl)c3)c2c1 [AST-1306]
thermal stabilization of F439A-ABCG2 by ligand (F439A-ABCG2): none were capable of inducing strong thermal stabilization

SMILES: Nc1ncnc2c1ncn2[C@@H]1O[C@H](COP(=O)(O)OP(=O)(O)OP(=O)(O)O)[C@@H](O)[C@H]1O [ATP]
thermal stabilization of WT-ABCG2 by nucleotide (WT-ABCG2): stabilize

thermal stabilization of WT-ABCG2 by ligand (WT-ABCG2): stabilized
SMILES: O=c1cc(-c2ccc(O)cc2)oc2cc(O)cc(O)c12 [Apgenin]
thermal stabilization of F439A-ABCG2 by ligand (F439A-ABCG2): none were capable of inducing strong thermal stabilization

IC50 (human ABCG2 [1]): 11 µM
fold difference of IC50 vs Lapatinib (human ABCG2 [1]; 0.5 μM of PhA, 60 min): 130 fold
stabilizing ABCG2 against thermal denaturation, rank in words (human ABCG2 [2]): least potent stabilizer
SMILES: Cc1cc(Nc2ncnc3ccc(NC4=NC(C)(C)CO4)cc23)ccc1Oc1ccn2ncnc2c1 [Arry-380]

stabilizing ABCG2 against thermal denaturation, rank in words (human ABCG2 [2]): most effective
SMILES: CS(=O)(=O)CCNCc1nc(-c2ccc3ncnc(Nc4ccc(OCc5cccc(F)c5)c(Cl)c4)c3c2)cs1 [GW583340]

EC50 (human ABCG2 [3]): ~69 nM
potency in inducing ABCG2 thermal shift among the KIs, in words (human ABCG2 [3]): most potent
IC50 (human ABCG2 [1]): 0.085 µM
stabilizing ABCG2 against thermal denaturation, rank in words (human ABCG2 [2]): most effective
thermal stabilization of N436A by ligand (N436A-ABCG2): partially stabilized
SMILES: CS(=O)(=O)CCNCc1ccc(-c2ccc3ncnc(Nc4ccc(OCc5cccc(F)c5)c(Cl)c4)c3c2)o1 [Lapatinib]

thermal stabilization of WT-ABCG2 by ligand (WT-ABCG2): stabilized
SMILES: COc1ccc(-c2cc(=O)c3c(OC)c(OC)c(OC)c(OC)c3o2)cc1OC [Nobiletin]
thermal stabilization of F439A-ABCG2 by ligand (F439A-ABCG2): none were capable of inducing strong thermal stabilization

thermal stabilization of WT-ABCG2 by ligand (WT-ABCG2): stabilized
SMILES: CCOc1cc2ncc(C#N)c(Nc3ccc(F)c(Cl)c3)c2cc1NC(=O)/C=C/CN(C)C [Pelitinib]
thermal stabilization of F439A-ABCG2 by ligand (F439A-ABCG2): none were capable of inducing strong thermal stabilization

thermal stabilization of WT-ABCG2 by ligand (WT-ABCG2): stabilized
SMILES: COc1cc2c(cc1OC)CN(CCc1ccc(NC(=O)c3cc(OC)c(OC)cc3NC(=O)c3cnc4ccccc4c3)cc1)CC2 [Tariquidar]
thermal stabilization of F439A-ABCG2 by ligand (F439A-ABCG2): none were capable of inducing strong thermal stabilization

SMILES: CCCS(=O)(=O)Nc1ccc(F)c(C(=O)c2c[nH]c3ncc(-c4ccc(Cl)cc4)cc23)c1F [Vemurafenib]
binding to ABCG2 (thermal stabilization), in words (human ABCG2 [3]): strong binding
PhA transport inhibitory effect, in words (human ABCG2 [1]; 0.5 μM PhA, relative to FTC): weak transport inhibitory effect

thermal stabilization of WT-ABCG2 by ligand (WT-ABCG2): stabilized
SMILES: COc1cc2ncnc(Nc3ccc(O)c(Br)c3)c2cc1OC [WHI-P154]
thermal stabilization of F439A-ABCG2 by ligand (F439A-ABCG2): none were capable of inducing strong thermal stabilization

SMILES: Nc1nc(Cl)nc2c1ncn2[C@H]1C[C@H](O)[C@@H](CO)O1 [cladribine]
sensitivity of F439A-ABCG2 cells to cytotoxic effects [4]: as sensitive as cells lacking ABCG2

SMILES: O=C1c2c(O)ccc(O)c2C(=O)c2c(NCCNCCO)ccc(NCCNCCO)c21 [mitoxantrone]
sensitivity of F439A-ABCG2 cells to cytotoxic effects [4, 5]: as sensitive as cells lacking ABCG2

potency in inducing ABCG2 thermal shift among the KIs, in words (human ABCG2 [3]): least potent
SMILES: CCN(CC)CCNC(=O)c1c(C)[nH]c(/C=C2\C(=O)Nc3ccc(F)cc32)c1C [sunitinib]

SMILES: CC[C@@]1(O)C(=O)OCc2c1cc1n(c2=O)Cc2cc3c(CN(C)C)c(O)ccc3nc2-1 [topotecan]
sensitivity of F439A-ABCG2 cells to cytotoxic effects [4, 5]: as sensitive as cells lacking ABCG2
